According to publication PMC6855808, “Direct binding of phosphatidylglycerol at specific sites modulates desensitization of a ligand-gated ion channel” (eLife, 2019):
Values joined by “and” are separate entries in the source; they are usually repeats but may differ in a detail not shown here. Identical values can stand only once. Like-named read-outs stand apart in the source and are kept apart here.

Tests used:
ELIC R117Q/R299Q = target: T1, ELIC R117Q/R299Q (Dickeya chrysanthemi, UniProt P0C7B7, R117Q/R298Q); assay: Excised patch-clamp recordings from giant liposomes; format: biochemical, Erwinia chrysanthemi; settings: 25 mole% POPG
T1 construct: MBP (N, cleaved yes); made in house; host or cells: OverExpress C43 (DE3) E. coli

ELIC R123Q/R299Q = target: T2, ELIC R123Q/R299Q (Dickeya chrysanthemi, UniProt P0C7B7, R123Q/R298Q); assay: as above; format: biochemical, Erwinia chrysanthemi; settings: 25 mole% POPG
T2 construct: MBP (N, cleaved yes); made in house; host or cells: OverExpress C43 (DE3) E. coli

ELIC R286Q/R299Q = target: T3, ELIC R286Q/R299Q (Dickeya chrysanthemi, UniProt P0C7B7, R285Q/R298Q); assay: as above; format: biochemical, Erwinia chrysanthemi; settings: 25 mole% POPG
T3 construct: MBP (N, cleaved yes); made in house; host or cells: OverExpress C43 (DE3) E. coli

ELIC R301Q/R299Q = target: T4, ELIC R301Q/R299Q (Dickeya chrysanthemi, UniProt P0C7B7, R298Q/R300Q); assay: as above; format: biochemical, Erwinia chrysanthemi; settings: 25 mole% POPG
T4 construct: MBP (N, cleaved yes); made in house; host or cells: OverExpress C43 (DE3) E. coli

ELIC L238A = target: T5, ELIC L238A (Dickeya chrysanthemi, UniProt P0C7B7, L237A); assay: as above; format: biochemical, Erwinia chrysanthemi; settings: 25 mole% POPG
T5 construct: MBP (N, cleaved yes); made in house; host or cells: OverExpress C43 (DE3) E. coli

ELIC R123Q = target: T6, ELIC R123Q (Dickeya chrysanthemi, UniProt P0C7B7, INS163G/R123Q); assay: as above; format: biochemical, Erwinia chrysanthemi; settings: 25 mole% POPG
T6 construct: MBP (N, cleaved yes); made in house; host or cells: OverExpress C43 (DE3) E. coli

ELIC R299Q = target: T7, ELIC R299Q (Dickeya chrysanthemi, UniProt P0C7B7, R298Q); assay: as above; format: biochemical, Erwinia chrysanthemi; settings: 25 mole% POPG
T7 construct: MBP (N, cleaved yes); made in house; host or cells: OverExpress C43 (DE3) E. coli

ELIC R117Q = target: T8, ELIC R117Q (Dickeya chrysanthemi, UniProt P0C7B7, INS163G/R117Q); assay: as above; format: biochemical, Erwinia chrysanthemi; settings: 25 mole% POPG
T8 construct: MBP (N, cleaved yes); made in house; host or cells: OverExpress C43 (DE3) E. coli

ELIC WT [1] = assay: as above; settings: for EC50: read-out: Dose response EC50 (mM cysteamine), peak current, 0.5 mM BaCl2
ELIC R286Q = target: T9, ELIC R286Q (Dickeya chrysanthemi, UniProt P0C7B7, R285Q); assay: as above; format: biochemical, Erwinia chrysanthemi; settings: 25 mole% POPG
T9 construct: MBP (N, cleaved yes); made in house; host or cells: OverExpress C43 (DE3) E. coli

ELIC R301Q = target: T10, ELIC R301Q (Dickeya chrysanthemi, UniProt P0C7B7, R300Q); assay: as above; format: biochemical, Erwinia chrysanthemi; settings: 25 mole% POPG
T10 construct: MBP (N, cleaved yes); made in house; host or cells: OverExpress C43 (DE3) E. coli

ELIC WT [2] = assay: Native MS phospholipid binding to delipidated ELIC in C10E5; set-up: species or system Erwinia chrysanthemi; settings: binomial binding model, 32 sites of equal affinity; 1 μM ELIC in C10E5; read-out: Dissociation constant K
Protocol: Native MS analysis was similar to previous descriptions for other membrane proteins ([Gault et al., 2016]). For analysis of ELIC in DDM, 30 μl of purified protein in 0.02% DDM at ~1 mg/ml was buffer exchanged into 200 mM ammonium acetate pH 7.5% and 0.02% DDM using Biospin six gel filtration spin columns (Bio-Rad, Hercules, CA). 2 μl of buffer exchanged ELIC was loaded into a borosilicate capillary emitter (Thermo Scientific, Waltham, MA), and analyzed by static nanospray on a Thermo QExactive EMR mass spectrometer. The following parameters were used to resolve the ELIC pentamer and minimize dissociation into tetramer and monomer: capillary voltage of 1.2 kV, capillary temperature of 200°C, ion transfer optics set with the injection flatapole, inter-flatapole lens, bent flatapole, transfer multiple as 8, 7, 6, 4 V, respectively, resolution 8,750, AGC target 3 × 10^6, trap pressure set to maximum, CID 200 V, and CE 100 V. For analysis of ELIC in C10E5, ELIC delipidated by injecting 300 μg onto a Sephadex 200 10/300 column (GE Healthcare) at 0.5 ml/min pre-equilibrated with Buffer A, 10% glycerol, and 0.06% C10E5 (Anatrace). 30 μl aliquots were then buffer exchanged to 100 mM ammonium acetate pH 7.5, 0.06% C10E5 using Biospin six columns, and diluted to 0.2 mg/ml. MS measurements on the QExactive EMR were performed with the parameters listed above except: capillary temperature 100°C, CID 75 V and CE 200 V. For lipid binding measurements, stocks of POPG lipid were prepared at 2× the concentration of POPG being tested in 100 mM ammonium acetate pH 7.5% and 0.06% C10E5. Lipid stocks were then mixed with 0.4 mg/ml ELIC in a 1:1 vol ratio for a final concentration of 1 μM ELIC, and samples were analyzed after >5 min incubation.
MS spectra were deconvoluted using UniDec ([Marty et al., 2015]); deconvolution of spectra with bound lipid was restricted to the 26+ to 22+ charge states (Figure 1—figure supplement 3). Peak heights of apo and lipid-bound species were extracted from UniDec, and analyzed by two approaches. The average number of bound lipids was determined by the following relationship:(1) Averagenumberboundlipid=∑n=0kn\cdot In/∑n=0kIn where n is the number of bound lipids and In is the deconvoluted peak height of ELIC with n bound lipids. Peak heights of apo and lipid-bound species were also plotted as mole fraction versus the number of bound lipids (Figure 1—figure supplement 4).
Then, the probability (B) that q sites are occupied out of N total sites is given by the binomial probability function:(3) Bq=N!/q!N-q!p^N-q(1-p)^q
B(q) was used to determine the mole fraction of each lipid-bound species at a given [A], which was used to fit the native MS data in Excel across all [A] by setting K constant and varying N or vice versa.

ELIC WT [3] = assay: Thermal stability assay (SEC pentamer peak after heating); format: binding, Erwinia chrysanthemi; settings: 1 μM ELIC in C10E5, 32°C for 15 min
Protocol: Purified WT ELIC in C10E5 (Buffer A, 0.06% C10E5) was diluted to 1 μM in the absence or presence of various concentrations of phospholipid. Samples were analyzed without and with heating in the absence or presence of phospholipid. […] The stabilizing effect of a phospholipid was quantified as the pentamer amplitude in the presence of phospholipid (heated) divided by control (heated).

ELIC WT [4] = assay: Sequential-mixing stopped-flow fluorescence Tl+ flux assay in liposomes; format: biochemical, Erwinia chrysanthemi; settings: 5 mM cysteamine
[5] = target: the molecule itself; assay: native MS; ELIC purified in 0.02% DDM, buffer exchanged into 200 mM ammonium acetate pH 7.5, 0.02% DDM; static nanospray, Q-Exactive EMR, CID 200 V, CE 100 V; co-purified lipids bound
[6] = read-out: Cysteamine response EC50

NCCS [cysteamine]
Activation τ (ELIC R117Q/R299Q; 30 mM cysteamine): 54 ± 26 ms | Desensitization norm current at 20 s (ELIC R117Q/R299Q; 30 mM cysteamine): 0.025 ± 0.004 | Desensitization weighted τ (ELIC R117Q/R299Q; 30 mM cysteamine): 1.13 ± 0.24 s | EC50 (ELIC R117Q/R299Q; [6]): 2.4 ± 0.7 mM | Activation τ (ELIC R123Q/R299Q; 30 mM cysteamine): 74 ± 35 ms | Desensitization norm current at 20 s (ELIC R123Q/R299Q; 30 mM cysteamine): 0.041 ± 0.005 | Desensitization weighted τ (ELIC R123Q/R299Q; 30 mM cysteamine): 1.66 ± 0.17 s | EC50 (ELIC R123Q/R299Q; [6]): 3.7 ± 0.6 mM | Activation τ (ELIC R286Q/R299Q; 30 mM cysteamine): 92 ± 27 ms | Desensitization norm current at 20 s (ELIC R286Q/R299Q; 30 mM cysteamine): 0.103 ± 0.032 | Desensitization weighted τ (ELIC R286Q/R299Q; 30 mM cysteamine): 2.08 ± 0.65 s | EC50 (ELIC R286Q/R299Q; [6]): 4.7 ± 1.5 mM | Activation τ (ELIC R301Q/R299Q; 30 mM cysteamine): 71 ± 21 ms | Desensitization norm current at 20 s (ELIC R301Q/R299Q; 30 mM cysteamine): 0.030 ± 0.017 | Desensitization weighted τ (ELIC R301Q/R299Q; 30 mM cysteamine): 0.45 ± 0.28 s | EC50 (ELIC R301Q/R299Q; [6]): 3.9 ± 0.9 mM | Activation τ (ELIC L238A; 30 mM cysteamine): 113 ± 51 ms | Desensitization norm current at 20 s (ELIC L238A; 30 mM cysteamine): 0.374 ± 0.045 | Desensitization weighted τ (ELIC L238A; 30 mM cysteamine): 5.90 ± 1.37 s | EC50 (ELIC L238A; [6]): 4.9 ± 1.1 mM | Activation τ (ELIC R123Q; 30 mM cysteamine): 112 ± 65 ms | Desensitization norm current at 20 s (ELIC R123Q; 30 mM cysteamine): 0.067 ± 0.015 | Desensitization weighted τ (ELIC R123Q; 30 mM cysteamine): 1.20 ± 0.39 s | EC50 (ELIC R123Q; [6]): 3.7 ± 0.9 mM | Activation τ (ELIC R299Q; 30 mM cysteamine): 71 ± 27 ms | Desensitization norm current at 20 s (ELIC R299Q; 30 mM cysteamine): 0.074 ± 0.008 | Desensitization weighted τ (ELIC R299Q; 30 mM cysteamine): 2.2 ± 0.17 s | EC50 (ELIC R299Q; [6]): 4.7 ± 0.3 mM | Activation τ (ELIC R117Q; 30 mM cysteamine): 54 ± 40 ms | Desensitization norm current at 20 s (ELIC R117Q; 30 mM cysteamine): 0.060 ± 0.020 | Desensitization weighted τ (ELIC R117Q; 30 mM cysteamine): 1.49 ± 0.40 s | EC50 (ELIC R117Q; [6]): 3.3 ± 0.9 mM | Activation τ (ELIC WT [1]; 25 mole% POPG, 30 mM cysteamine): 134 ms and 134 ± 50 ms | Desensitization norm current at 20 s (ELIC WT [1]; 25 mole% POPG, 30 mM cysteamine, normalized to peak response): 0.100 ± 0.041 | EC50 (ELIC WT [1]; 12 mole% POPG): 5.3 ± 1 mM | EC50 (ELIC WT [1]; 25 mole% POPG): 5.1 ± 1.2 mM | EC50 (ELIC WT [1]; 40 mole% POPG): 6.5 ± 1.3 mM | Activation τ (ELIC R286Q; 30 mM cysteamine): 106 ± 34 ms | Desensitization norm current at 20 s (ELIC R286Q; 30 mM cysteamine): 0.091 ± 0.023 | Desensitization weighted τ (ELIC R286Q; 30 mM cysteamine): 1.67 ± 0.24 s | EC50 (ELIC R286Q; [6]): 4.3 ± 0.4 mM | Activation τ (ELIC R301Q; 30 mM cysteamine): 72 ± 15 ms | Desensitization norm current at 20 s (ELIC R301Q; 30 mM cysteamine): 0.045 ± 0.017 | Desensitization weighted τ (ELIC R301Q; 30 mM cysteamine): 0.66 ± 0.28 s | EC50 (ELIC R301Q; [6]): 5.2 ± 0.8 mM

CCCCCCCC/C=C\CCCCCCCC(=O)O[C@H](COC(=O)CCCCCCCCCCCCCCC)COP(=O)(O)OCCN [POPE, 1-palmitoyl-2-oleoyl-phosphatidylethanolamine]
Kd (ELIC WT [2]): 0.19 mM | Effect on ELIC stability against thermal denaturation (ELIC WT [3]): no effect

CCCCCCCC/C=C\CCCCCCCC(=O)O[C@H](COC(=O)CCCCCCCCCCCCCCC)COP(=O)([O-])OCC[N+](C)(C)C [POPC, 1-palmitoyl-2-oleoyl-phosphatidylcholine]
Kd (ELIC WT [2]): 0.28 mM | Effect on ELIC stability against thermal denaturation (ELIC WT [3]): no effect | Fold faster rate of desensitization in POPC liposomes vs POPC:POPE:POPG liposomes (ELIC WT [4]): more than 20 fold | Activation τ (ELIC WT [4]; liposome composition as labelled, double exponential fit, fast component): 39 ± 17 ms | Desensitization τ (ELIC WT [4]; liposome composition as labelled, double exponential fit, slow component): 0.42 ± 0.05 s

B1: Erwinia ligand-gated ion channel (ELIC), wild type (natural protein, Erwinia chrysanthemi, UniProt P0C7B7 1-321, looked up)
chain: APADNAADARPVDVSVSIFINKIYGVNTLEQTYKVDGYIVAQWTGKPRKTPGDKPLIVENTQIERWINNGLWVPALEFINVVGSPDTGNKRLMLFPDGRVIYNARFLGSFSNDMDFRLFPFDRQQFVLELEPFSYNNQQLRFSDIQVYTENIDNEEIDEWWIRKASTHISDIRYDHLSSVQPNQNEFSRITVRIDAVRNPSYYLWSFILPLGLIIAASWSVFWLESFSERLQTSFTLMLTVVAYAFYTSNILPRLPYTTVIDQMIIAGYGSIFAAILLIIFAHHRQAMGVEDDLLIQRCRLAFPLGFLAIGCVLVIRGITL
notes: Erwinia ligand-gated ion channel (ELIC), a pentameric ligand-gated ion channel of Erwinia chrysanthemi; expressed from pET26-MBP-ELIC (Addgene plasmid 39239); MBP was removed with HRV-3C protease before size exclusion; also called ELIC WT; WT; source: OverExpress C43 (DE3) E. coli, purified (membranes solubilized in DDM, amylose resin, HRV-3C digestion, size exclusion)
stoichiometry N [5]: 5
